From US7053041B1, “Methods and compositions useful for inhibition of αvβ5mediated angiogenesis” (The Scripps Research Institute, priority 1996, dated 2006)
Entries after “also recorded” stand apart in the source; their conditions may differ. [ ]: non-standard residue; d: D form.

B1: LM609: mouse monoclonal antibody, anti-αvβ3 (antibody, V domains shown)
VH: EVQLEESGGGLVKPGGSLKLSCAASGFAFSSYDMSWVRQIPEKRLEWVAKVSSGGGSTYYLDTVQGRFTISRDNAKNTLYLQMSSLNSEDTAMYYCARHNYGSFAYWGQGTLVTVSA
VL: ELVMTQTPATLSVTPGDSVSLSCRASQSISNHLHWYQQKSHESPRLLIKYASQSISGIPSRFSGSGSGTDFTLSINSVETEDFGMYFCQQSNSWPHTFGGGTKLEIKRA

Experiments:
[1] = test system: bFGF-induced angiogenesis; assay: in vivo rabbit eye model assay, bFGF-induced corneal angiogenesis
Experimental: (§1) Hydron polymer pellets containing growth factor and monoclonal antibodies (mAbs) were prepared as described by D'Amato, et al., Proc. Natl. Acad. Sci., 91:4082–4085 (1994). […] In addition, hydron pellets were prepared which contained either 40 μg of the mAb P1F6 (anti-αvβ5) or the control antibody, LM609 (anti-αvβ3), in PBS.
(§2) All of the mAbs tested were purified from ascites fluid using Protein-A Sepharose CL-4B affinity column chromatography according to well-known methods. The eluted immunoglobulin was then dialyzed against PBS and treated with Detoxi-gel (Pierce Chemicals, Rockford, Ill.) to remove endotoxin. […] Monoclonal antibodies were therefore tested for the presence of endotoxin with the Chromogenic Limulus Amebocyte Lysate Assay (BioWhittaker, Walkersville, Md.) and only those mAbs without detectable endotoxin were used in the rabbit eye model assay.
(§3) Approximately 12 μl of casting material was placed into each peg and polymerized overnight in a sterile hood. Pellets were then sterilized by ultraviolet irradiation.
A series of eight animals were used for paired eye experiments where each animal received a Hydron implant containing a preselected cytokine with a preselected antibody or control immunoglobulin. Specifically, for each rabbit, one cornea was surgically implanted with a Hydron pellet containing either bFGF or VEGF in conjunction with mAb P1F6 and the other cornea was treated with either bFGF or VEGF in conjunction with MAb LM609. Individual pellets were implanted into surgically created “pockets” formed in the mid-stroma of the cornea of rabbits. The surgical procedure was done under sterile technique using a Wild model M691 operating microscope equipped with a beamsplitter to which was mounted a camera for photographically recording individual corneas. A 3 mm by 5 mm “pocket” was created in the corneal stroma by making a 3 mm incision to half the corneal thickness with a 69 Beaver blade. The stroma was dissected peripherally using an iris spatula and the pellet was implanted with its peripheral margin 2 mm from the limbus. […]
(§4) The effects of specific mAb integrin immunoreactivity on the above cytokine-induced angiogenesis is also quantified as shown in FIGS. 2A and 2B. […] Photographs were recorded on Kodak Ektachrome 64T slide film and images were converted for computer-assisted quantitation using Biorad's Molecular Analyst 1.1 software after acquisition through a Model GS670 imaging densitometer. […]
(§5) Each experiment consisted of eight rabbits in which one eye received a pellet comprising 100 nanograms (ng) bFGF and the other eye received a pellet comprising 1 microgram (ug) VEGF. […] After 7 days, the cornea were evaluated as described above.

[2] = test system: VEGF-induced angiogenesis; assay: in vivo rabbit eye model assay, VEGF-induced corneal angiogenesis
Experimental: as §1, §2, §3
A series of eight animals were used for paired eye experiments where each animal received a Hydron implant containing a preselected cytokine with a preselected antibody or control immunoglobulin. Specifically, for each rabbit, one cornea was surgically implanted with a Hydron pellet containing either bFGF or VEGF in conjunction with mAb P1F6 and the other cornea was treated with either bFGF or VEGF in conjunction with MAb LM609. […]
as §4, §5

[3] = test system: M21L human melanoma tumors; assay: chimeric mouse:human (SCID) assay, M21L melanoma tumor growth; type: in vivo; conditions: for tumor volume (FIG. 9): 250 μg peptide intraperitoneally 3 times per week over 3 weeks; for tumor volume (FIG. 21): M21-L tumors, peptides compared with mAB LM609
Experimental: An in vivo chimeric mouse:human model was generated by replacing a portion of skin from a SCID mouse with human neonatal foreskin. The in vivo chimeric mouse:human model was prepared essentially as described in Yan, et al., J. Clin. Invest., 91:986–996 (1993). Briefly, a 2 cm^2 square area of skin was surgically removed from a SCID mouse (6–8 weeks of age) and replaced with a human foreskin. The mouse was anesthetized and the hair removed from a 5 cm^2 area on each side of the lateral abdominal region by shaving. Two circular graft beds of 2 cm^2 were prepared by removing the full thickness of skin down to the fascia. Full thickness human skin grafts of the same size derived from human neonatal foreskin were placed onto the wound beds and sutured into place. The graft was covered with a Band-Aid which was sutured to the skin. Micropore cloth tape was also applied to cover the wound.
After the skin graft was established, the human foreskin was inoculated with melanoma cells. The M21L human melanoma cell line was used to form the solid human tumors on the human skin grafts on the SCID mice. A single cell suspension of 2×10^6 M21L was injected intradermally into the human skin graft. The mice were then observed for 2 to 4 weeks to allow growth of measurable human tumors.
After a measurable tumor was established, either 250 μg of the peptide (in a volume of 100 μl) having SEQ ID NO 9 (cyclic RGD-containing peptide Arg-Gly-Asp-D-Phe-Asn-NMeVAL) or a control peptide, cyclo Arg-βAla-Asp-D-Phe-Val, were injected intraperitoneally into the mouse 3 times per week over 3 weeks. At the end of this time, the tumor was excised and analyzed by weight and histology.
In additional assays with the SCID mice model having measurable M21-L tumors, in a preliminary analysis, a dose response curve was performed for peptides 69601 (control) and 85189 (test) injected over a concentration range of 10 to 250 μg/ml. The mean volume and weight of resected tumors following treatment were determined with the results respectively shown in FIGS. 22A and 22B.
For analyzing peptide 85189 treatment effectiveness over a time course, two treatment regimens were evaluated in the same SCID tumor model. In one assay, treatment with either peptide 85189 or 69601 was initiated on day 6, with day 0 being the day of M21-L tumor injection of 3×10^6 cells subcutaneously into mouse skin, with intraperitoneal injections of 250 μg/ml peptide 85189 or control 69601 every other day until day 29. The other assay was identically performed with the exception that treatment was initiated on day 20. At the end of the assays, the tumors were resected and the mean tumor volume in mm^3 was determined. The data was plotted as this value +/− the standard error of the mean.

Molecule	corneal blood vessel growth at 7 days, bFGF-stimulated eyes ([1]; peptide s.q. 50 ug per kg initial, 20 ug/kg daily, 100 ng bFGF pellet)	corneal blood vessel growth at 7 days, VEGF-stimulated eyes ([2]; peptide s.q. 50 ug per kg initial, 20 ug/kg daily, 1 ug VEGF pellet)	tumor volume (FIG. 9) [3]	tumor volume (FIG. 21) [3]	amount of corneal blood vessel growth compared to controls ([1]; peptide s.q. 50 ug per kg initial, 20 ug/kg daily, 7 days, 100 ng bFGF pellet)	inhibition of corneal blood vessel growth ([2]; peptide s.q. 50 ug per kg initial, 20 ug/kg daily, 7 days, 1 ug VEGF pellet) [%]	inhibition of tumor growth over a time course (mean tumor volume) ([3]; 250 μg/ml intraperitoneally every other day from day 6 or day 20 until day 29)	inhibition of M21-L tumor growth, dose response (volume and weight) ([3]; 10 to 250 μg/ml, preliminary analysis)	most effective dosage ([3]; range tested 10 to 250 μg/ml) [µg/mL]	reduction of bFGF-induced angiogenesis (mean neovascular area) ([1]; 40 μg mAb in pellet, compared to paired eye treated with P1F6, p<0.005) [%]	inhibition of bFGF-induced corneal angiogenesis ([1]; Hydron pellet with 750 ng bFGF and 40 μg mAb, postoperative day 10)	inhibition of VEGF-induced corneal angiogenesis ([2]; Hydron pellet with 750 ng VEGF and 40 μg mAb, postoperative day 10)
cyclo(Arg-Ala-Asp-D-Phe-Val) (cyclo(RAD[dF]V); SMILES CC(C)[C@@H]1NC(=O)[C@@H](Cc2ccccc2)NC(=O)[C@H](CC(=O)O)NC(=O)[C@H](C)NC(=O)[C@H](CCCNC(=N)N)NC1=O) [peptide 69601, reference compound]	substantial corneal blood vessel growth	substantial corneal blood vessel growth	greater than 300 mm^3	approximately 360 mm^3	–	–	–	–	–	–	–	–
cyclo(Arg-Gly-Asp-D-Phe-NMeVal) [peptide 85189]	–	–	approximately 25 mm^3	below 25 mm^3	less than 50%	~100	inhibited tumor growth	effective at inhibiting M21-L tumor growth	250	–	–	–
B1	–	–	–	approximately 60 mm^3	–	–	–	–	–	86	inhibited	not effective at inhibiting VEGF-induced angiogenesis; also recorded: minimal effect on VEGF-induced angiogenesis
